Results taken from US5091523A (priority 1990, dated 1992).
In brackets after ≈: the same amount, converted by molar mass. Like-named read-outs stand apart in the source and are kept apart here.

What was measured:
[1] = tested on: MDA-MB-231 human breast tumor cell line; assay: Inhibition of DNA synthesis ([^3 H] deoxythymidine incorporation), MDA-MB-231; format: cell-based; details: for inhibition of DNA synthesis: MDA-MB-231, pharmacologically relevant concentrations (FIG. 1)
From the text: (§1) Since a major use of analogues would be for the treatment of this disease, in vitro screening against human breast cancer cell lines was investigated. Two cell lines were investigated. […] The MCF-7 cell line retains estrogen receptor expression, has an absolute requirement for estrogen to form tumors in nude mice, responds to antiestrogen therapy and is more representative of tumors with a better prognosis.
(§2) The cytotoxic effects of Mitomycin-C are largely the result of its interactions with DNA. Consequently, the ability of Mitomycin-C and its analogues to inhibit the rate of incorporation of [^3 H] deoxythymidine into DNA was initially determined. Deoxythymidine is an essential precursor for the synthesis of DNA. The experiments were performed as described by Clarke et al., Br. J. Cancer 51: 365-369 (1985).

[2] = tested on: MCF-7 human breast tumor cell line; assay: Inhibition of DNA synthesis ([^3 H] deoxythymidine incorporation), MCF-7; format: cell-based; details: for inhibition of DNA synthesis: MCF-7, pharmacologically relevant concentrations (FIG. 2)
From the text: as §1, §2

MDA-MB-231 cells [3] = assay: Inhibition of the rate of cell proliferation; format: cell-based, human; details: for effect on the rate of cell proliferation / cell population kinetics: MDA-MB-231 (FIG. 3)
From the text: as §1
(§3) The interpretation of the effects of cytotoxic drugs on the rate of cell proliferation is a more difficult endpoint to interpret. For example, a cytotoxic agent may apparently reduce the rate of cell growth by killing a proportion of the cells. Alternatively, all the cells in the population may be growth arrested but not killed. Both of these series of events could produce identical growth curves.

MDA-MB-231 cells [4] = assay: Anchorage-dependent colony formation; format: cell-based, human
From the text: as §1
Consequently, the most accurate methods for determining cell kill measure the ability of a single cell to produce a clone of 50 or more cells (equivalent to six or more divisions). Two clonogenic assays were utilized. The anchorage-dependent assay provides the cells with a solid plastic substrate for attachment. The experiments were preformed as described by van den Berg et al. (1981), supra.

[5] = tested on: human breast cancer cell lines; format: cell-based; details: soft agar; for effect on anchorage-independent colony formation / cell survival: two assays (FIG. 5)
From the text: as §1
The anchorage-independent assay ensures that the cells grow in suspension in a soft agar solution. Thus, cells must retain both their basal reproductive integrity and their ability to grow in suspension. The data in FIG. 5 represents the results of two anchorage-independent colony formation assays. The assays were performed as described by Clarke et al., J. Endocrinol. 122: 331-340 (1989).

[6] = tested on: human breast cancer cell lines; assay: Conclusion over all four in vitro endpoints; format: cell-based
From the text: as §1, §2, §3
Consequently, the most accurate methods for determining cell kill measure the ability of a single cell to produce a clone of 50 or more cells (equivalent to six or more divisions). […]

[7] = Host toxicity (preliminary data); format: in vivo, mice; details: for mortality: mouse, in vivo, one ip injection, read-out: fatalities
From the text: Further, in vivo testing will be performed in two parts. Firstly, the host toxicity of the analogues in comparison with the parent drug will be tested. The concentration required to kill approximately 10% of a population of mice will then be determined. Histopathological analysis will determine the effect of drug treatment on tissues and organs. Analysis of white blood cell counts will provide information on hematopoietic toxicity. […] 80% and 100% fatalities were observed following one intraperitoneal injection of 30 and 40 mg/kg MC-77 respectively.

[8] = tested on: Gram-negative strain of bacteria (HB101); assay: Antibacterial activity, agar dilution M.I.C. (Example 12, Table 4); format: cell-based; details: read-out: M.I.C. Gram-negative Bacteria
Method: Minimum inhibition concentration (M.I.C.) against a Gram-negative strain of bacteria (HB101) was estimated by the dilution method, with graded concentrations of drug added to agar at 37°-40° C. […] The agar, containing drug, quickly solidified at room temperature, and the bacteria were plated immediately.

P388 leukemia [9] = assay: Murine P388 leukemia antitumor activity (Example 14, Table 5); format: in vivo, murine (CD2F1 male mice)
From the text: T is the mean survival days of mice receiving drug=treated mice
C is the mean survival days of the mice receiving drug vehicle.

P388 leukemia [10] = details: cited from earlier work
[11] = tested on: murine and human neoplasms; details: preclinical and clinical studies; cited from earlier work
bone marrow = details: preclinical and clinical studies; cited from earlier work
metastatic breast cancer = details: cited from earlier work
P388 leukemia [12] = assay: Murine P388 leukemia antitumor activity (Example 11, Table 2); format: in vivo, murine (CD2F1 male mice); details: for % ILS (percentage increased life span): Day 1, P388 leukemia; for Mean Survival: control 10.0
Method: The murine P388 leukemia system, maintained intraperitoneally in female DBA/2 mice, was used to evaluate antitumor activity.
The P388 antileukemic activity of the test compound was assessed by mean survival days and percentage increased life span (ILS). The % ILS was calculated as follows: […]
where T is the mean survival days of the treated mice and C is the mean survival days of the untreated mice.

[13] = tested on: peripheral leukocyte (WBC); assay: In vivo murine WBC depression / bone marrow toxicity (Table 3); set-up: species or system normal CD2F1 male mice
Method: Blood samples obtained were diluted in 9.98 ml of Isoton (a neutral, isotonic buffer solution) and counted in a Coulter counter after lysis with Zapoglobin (an enzyme solution which lyses red blood cells, but not white blood cells). WBC counts are expressed as a percentage of values from control mice receiving drug vehicle only.

[14] = Weight loss resultant from drug toxicity (Example 14, Table 5)
Method: Each compound was administered intraperitoneally to groups of CD2F1 male mice on Day 1 following intraperitoneal implantation of 1×10^6 P388 leukemia cells.
Weight loss resultant from drug toxicity was also determined.

CO[C@@]12[C@H](COC(N)=O)C3=C(C(=O)C(C)=C(NCCCC(=O)N[C@@H]4O[C@H](COC(C)=O)[C@@H](OC(C)=O)[C@H](OC(C)=O)[C@H]4NC(C)=O)C3=O)N1C[C@@H]1N[C@@H]12 [MC-62, 7-{3-[(2-acetamido-3,4,6-tri-O-acetyl-β-D-glucopyranosyl)-amino]carbonylpropylamino}-9-methoxymitosane]
potency in inhibition of DNA synthesis relative to Mitomycin-C and MC-77 ([1]; MDA-MB-231): significantly less potent than both Mitomycin-C and MC-77 | potency in inhibition of DNA synthesis relative to Mitomycin-C and MC-77 ([2]; MCF-7): significantly less potent than both Mitomycin-C and MC-77 | effect on the rate of cell proliferation / cell population kinetics (MDA-MB-231 cells [3]): failed to markedly influence the rate of MDA-MB-231 growth | effect on anchorage-dependent colony formation (MDA-MB-231 cells [4]; MDA-MB-231 (FIG. 4)): did not significantly influence colony formation | effect on anchorage-independent colony formation / cell survival [5]: consistently fails to influence colony formation | antineoplastic potential (all four endpoints) [6]: significantly reduced antineoplastic potential

CO[C@@]12[C@H](COC(N)=O)C3=C(C(=O)C(C)=C(Nc4ccc(O[C@@H]5O[C@H](COC(C)=O)[C@@H](OC(C)=O)[C@H](OC(C)=O)[C@H]5OC(C)=O)cc4)C3=O)N1C[C@@H]1N[C@@H]12 [MC-77, 7-{[4-(2,3,4,6-tetra-O-acetyl-β-D-glucopyranosyl)oxyphenyl]amino}-9-methoxymitosane]
inhibition of DNA synthesis compared with the parent compound ([1]; MDA-MB-231, equimolar concentrations, vs Mitomycin-C): two to five fold greater inhibition of DNA synthesis | inhibition of DNA synthesis [1]: significant and dose dependent inhibition of DNA synthesis | inhibition of DNA synthesis compared with the parent compound ([2]; MCF-7, equimolar concentrations, vs Mitomycin-C): two to five fold greater inhibition of DNA synthesis | inhibition of DNA synthesis [2]: significant and dose dependent inhibition of DNA synthesis | effect on the rate of cell proliferation / cell population kinetics (MDA-MB-231 cells [3]): significantly inhibited the rate of cell proliferation | cell number relative to starting cell number (MDA-MB-231 cells [3]; MDA-MB-231, 1.5 uM): reduced cell number below starting cell number | reduction in anchorage-dependent colony forming ability (MDA-MB-231 cells [4]; MDA-MB-231, 0.25 uM): significant reduction in colony forming ability | inhibition of anchorage-dependent colony formation compared with Mitomycin-C (MDA-MB-231 cells [4]; MDA-MB-231, 0.25 uM, vs equimolar Mitomycin-C, estimated): approximately two to five fold greater | effect on anchorage-independent colony formation / cell survival [5]: dose dependent reductions in cell survival | cytotoxicity in anchorage-independent assay compared with Mitomycin-C ([5]; vs Mitomycin-C): two to five fold more cytotoxic | cytotoxic potential compared with the parent drug (all four endpoints) ([6]; vs Mitomycin-C): marked improvement in the cytotoxic potential of between two and five fold | fold less toxic than the parent drug ([7]; inconclusive preliminary data, vs Mitomycin-C): up to two fold less toxic than the parent drug | mortality ([7]; 30 mg/kg, preliminary, one experiment): 80% | mortality ([7]; 40 mg/kg, preliminary, one experiment): 100% | toxicity compared with Mitomycin-C ([7]; preliminary): no more toxic when compared with Mitomycin-C | dose response curve for toxicity ([7]; preliminary, one experiment): retained the steep dose response curve for toxicity

CO[C@@]12[C@H](COC(N)=O)C3=C(C(=O)C(C)=C(N)C3=O)N1C[C@@H]1N[C@@H]12 [Mitomycin C, mitomycin C, reference compound]
MIC ([8]; HB101, agar, 24 hours at 37° C.): 0.3 to 0.5 µg/mL (≈ 0.897 to 1.5 µM) | inhibition of DNA synthesis [1]: significant and dose dependent inhibition of DNA synthesis | inhibition of DNA synthesis [2]: significant and dose dependent inhibition of DNA synthesis | effect on the rate of cell proliferation / cell population kinetics (MDA-MB-231 cells [3]): significantly inhibited the rate of cell proliferation | reduction in anchorage-dependent colony forming ability (MDA-MB-231 cells [4]; MDA-MB-231, 0.25 uM): significant reduction in colony forming ability | effect on anchorage-independent colony formation / cell survival [5]: dose dependent reductions in cell survival | % ILS (P388 leukemia [9]; 5 mg/kg ip): 83 | optimal single ip P388 therapeutic dose (P388 leukemia [10]): 4.5 to 5.5 mg/kg | activity against murine and human neoplasms [11]: activity against a variety of murine and human neoplasms | bone marrow toxicity (bone marrow): severe, delayed bone marrow toxicity | objective responses in patients (metastatic breast cancer): significant percentage of objective responses

CO[C@@]12[C@H](COC(N)=O)C3=C(C(=O)C(C)=C(N[C@H]4C(O)O[C@H](CO)[C@@H](O)[C@@H]4O)C3=O)N1C[C@@H]1N[C@@H]12 (some centres unmarked) [N^7-(2-deoxyglucopyranosyl)mitomycin C]
% ILS (percentage increased life span) (P388 leukemia [12]; 5 mg/kg ip): 42% | Mean Survival (P388 leukemia [12]; 5 mg/kg ip): 14.2 days | % ILS (percentage increased life span) (P388 leukemia [12]; 13.5 mg/kg ip): 61% | Mean Survival (P388 leukemia [12]; 13.5 mg/kg ip): 16.1 days | activity against the murine P388 tumor system (P388 leukemia [12]; summary): significant activity against the murine P388 tumor system | WBC Count on Day 3 (as percent of control) ([13]; 13.5 mg/kg ip, normal CD2F1 male mice, Day 3): 94% | bone marrow toxicity as determined by depression of peripheral leukocyte (WBC) count ([13]; summary, at active doses): no significant bone marrow toxicity | MIC ([8]; 24 h): 1.66 to 3.3 µg/mL (≈ 3.34 to 6.65 µM)

CO[C@@]12[C@H](COC(N)=O)C3=C(C(=O)C(C)=C(Nc4ccc(OP(=O)(O)O)cc4)C3=O)N1C[C@@H]1N[C@@H]12 [N^7-(4-phosphatophenyl)mitomycin C]
% ILS (P388 leukemia [9]; 15 mg/kg ip): 84 | 30-day survivor (P388 leukemia [9]; 30 mg/kg ip): 1/5 | % ILS (P388 leukemia [9]; 30 mg/kg ip): > 150 | weight loss ([14]; 15 mg/kg ip): No weight loss | Average weight loss ([14]; 30 mg/kg ip): 8% | body weight decrease for all mice ([14]; 45 mg/kg ip, by Day 6 post-drug injection): 20-24%
